Source: patent US7189351B2, “D-tagatose as an anti-biofilm agent” (priority 2001, dated 2007)

What was measured:
[1] = system: coaggregating pairs of oral isolates (early and late colonizers); test: reversal of coaggregation among fifteen oral isolates (overall); assay type: cell-based, bacterial strains of human gingival crevice origin
Experimental: (§1) Fifteen oral isolates, including both early colonizers (Streptococcus and Actinomyces) and late colonizers (Fusobacterium, Porphyromonas, Prevotella, Veillonella, Capnocytophaga, and Actinobacillus), were tested for their ability to coaggregate with each other, followed by testing for the reversal of coaggregation by the addition of D-tagatose. Bacterial strains used were of human gingival crevice origin. The coaggregation was examined visually by a scoring system ranging from 0 for no visible coaggregation to 4 for maximum coaggregation [Cisar J. O., Kolenbrander P. E., and McIntire F. C., “Specificity of coaggregation reactions between human oral streptococci and strains of Actinomyces viscosus or Actinomyces naeslundii”, Infect. Immun., 24:742–752. 1979]. D-Tagatose, at a concentration of less than 750 mM, completely reversed the coaggregation of 17 (60%) of 28 strong coaggregating pairs (with a coaggregation score of 2 or higher) tested. […] These D-tagatose sensitive coaggregations were D-galactose reversible as well.
(§2) Pairs of various species of oral bacteria were tested for coaggregation, and for reversal of coaggregation when D-tagatose or D-galactose was administered.

[2] = system: F. nucleatum PK1594 and P. gingivalis PK1924; test: phase-contrast photomicrographs of coaggregation; assay type: cell-based, Fusobacterium nucleatum; Porphyromonas gingivalis
[3] = system: Streptococcus morbillorum PK509/Prevotella loescheii PK1295; test: reversal of coaggregation, visual score; assay type: cell-based; set-up: key to coaggregation score without sugar: *: Coaggregations were reversed by both D-galactose and D-tagatose; details: pair PK509/PK1295; for coaggregation score without sugar: coaggregation score 2 without sugar; for coaggregation score: water score 2, scale 0 no visible to 4 maximum coaggregation
Experimental: as §1, §2

[4] = system: Streptococcus morbillorum PK509/Streptococcus oralis C104; test: reversal of coaggregation, visual score; assay type: cell-based; set-up: key to coaggregation score without sugar: *: Coaggregations were reversed by both D-galactose and D-tagatose; details: for coaggregation score without sugar: pair Cl04/PK509, coaggregation score 3 without sugar; for coaggregation score: pair PK509/C104, water score 3, scale 0 no visible to 4 maximum coaggregation
Experimental: as §1, §2

[5] = system: Prevotella loescheii PK1295/Streptococcus mitis J22; test: reversal of coaggregation, visual score; assay type: cell-based; set-up: key to coaggregation score without sugar: *: Coaggregations were reversed by both D-galactose and D-tagatose; details: for coaggregation score without sugar: pair J22/PK1295, coaggregation score 3 without sugar; for coaggregation score: pair PK1295/J22, water score 4, scale 0 no visible to 4 maximum coaggregation
Experimental: as §1, §2

[6] = system: Actinomyces naeslundii PK29/Streptococcus oralis C104; test: reversal of coaggregation, visual score; assay type: cell-based; set-up: key to coaggregation score without sugar: *: Coaggregations were reversed by both D-galactose and D-tagatose; details: for coaggregation score without sugar: pair Cl04/PK29, coaggregation score 4 without sugar; for coaggregation score: pair PK29/C104, water score 4, scale 0 no visible to 4 maximum coaggregation
Experimental: as §1, §2

[7] = system: Actinomyces naeslundii PK29/Streptococcus oralis SO34; test: reversal of coaggregation, visual score; assay type: cell-based; set-up: key to coaggregation score without sugar: *: Coaggregations were reversed by both D-galactose and D-tagatose; details: for coaggregation score: pair PK29/SO34, water score 4, scale 0 no visible to 4 maximum coaggregation; for coaggregation score without sugar: pair SO34/PK29, coaggregation score 4 without sugar
Experimental: as §1, §2

[8] = system: Veillonella atypica PK1910/Streptococcus oralis SO34; test: reversal of coaggregation, visual score; assay type: cell-based; set-up: key to coaggregation score without sugar: *: Coaggregations were reversed by both D-galactose and D-tagatose; details: for coaggregation score: pair PK1910/SO34, water score 3, scale 0 no visible to 4 maximum coaggregation; for coaggregation score without sugar: pair SO34/PK1910, coaggregation score 3 without sugar
Experimental: as §1, §2

[9] = system: Veillonella atypica PK1910/Streptococcus oralis C104; test: reversal of coaggregation, visual score; assay type: cell-based; set-up: key to coaggregation score without sugar: *: Coaggregations were reversed by both D-galactose and D-tagatose; details: for coaggregation score without sugar: pair Cl04/PK1910, coaggregation score 3 without sugar; for coaggregation score: pair PK1910/C104, water score 3, scale 0 no visible to 4 maximum coaggregation
Experimental: as §1, §2

[10] = system: Fusobacterium nucleatum PK1594/Porphyromonas gingivalis PK1924; test: reversal of coaggregation, visual score; assay type: cell-based; set-up: key to coaggregation score without sugar: *: Coaggregations were reversed by both D-galactose and D-tagatose; details: pair PK1594/PK1924; for coaggregation score without sugar: coaggregation score 4 without sugar; for coaggregation score: water score 4, scale 0 no visible to 4 maximum coaggregation
Experimental: as §1, §2

[11] = system: Streptococcus morbillorum PK509/Streptococcus oralis SO34; test: reversal of coaggregation, visual score; assay type: cell-based; set-up: key to coaggregation score without sugar: *: Coaggregations were reversed by both D-galactose and D-tagatose; details: for coaggregation score: pair PK509/SO34, water score 2, scale 0 no visible to 4 maximum coaggregation; for coaggregation score without sugar: pair SO34/PK509, coaggregation score 2 without sugar
Experimental: as §1, §2

[12] = system: Streptococcus morbillorum PK509/Veillonella atypica PK1910; test: reversal of coaggregation, visual score; assay type: cell-based; set-up: key to coaggregation score without sugar: *: Coaggregations were reversed by both D-galactose and D-tagatose; details: pair PK509/PK1910; for coaggregation score without sugar: coaggregation score 2 without sugar; for coaggregation score: water score 2, scale 0 no visible to 4 maximum coaggregation
Experimental: as §1, §2

[13] = system: Fusobacterium nucleatum PK1594/Veillonella atypica PK1910; test: reversal of coaggregation, visual score; assay type: cell-based; set-up: key to coaggregation score without sugar: *: Coaggregations were reversed by both D-galactose and D-tagatose; details: pair PK1594/PK1910; for coaggregation score without sugar: coaggregation score 3 without sugar; for coaggregation score: water score 3, scale 0 no visible to 4 maximum coaggregation
Experimental: as §1, §2

[14] = system: Fusobacterium nucleatum PK1594/Actinobacillus actinomycetemcomitans JP2; test: reversal of coaggregation, visual score; assay type: cell-based; set-up: key to coaggregation score without sugar: *: Coaggregations were reversed by both D-galactose and D-tagatose; details: pair PK1594/JP2; for coaggregation score without sugar: coaggregation score 3 without sugar; for coaggregation score: water score 3, scale 0 no visible to 4 maximum coaggregation
Experimental: as §1, §2

[15] = system: Actinomyces naeslundii PK947/Streptococcus mitis J22; test: reversal of coaggregation, visual score; assay type: cell-based; set-up: key to reversal of coaggregation: *: Coaggregations were reversed by both D-galactose and D-tagatose; details: for reversal of coaggregation: pair J22/PK947, coaggregation score 2 without sugar; for coaggregation score: pair PK947/J22, water score 2, scale 0 no visible to 4 maximum coaggregation
Experimental: as §1, §2

[16] = system: Actinomyces naeslundii PK947/Streptococcus oralis C104; test: reversal of coaggregation, visual score; assay type: cell-based; set-up: key to reversal of coaggregation: *: Coaggregations were reversed by both D-galactose and D-tagatose; details: for reversal of coaggregation: pair Cl04/PK947, coaggregation score 2 without sugar; for coaggregation score: pair PK947/C104, water score 2, scale 0 no visible to 4 maximum coaggregation
Experimental: as §1, §2

[17] = system: Actinomyces naeslundii PK29/Streptococcus morbillorum PK509; test: reversal of coaggregation, visual score; assay type: cell-based; set-up: key to reversal of coaggregation: *: Coaggregations were reversed by both D-galactose and D-tagatose; details: for coaggregation score: pair PK29/PK509, water score 2, scale 0 no visible to 4 maximum coaggregation; for reversal of coaggregation: pair PK509/PK29, coaggregation score 2 without sugar
Experimental: as §1, §2

[18] = system: Actinomyces naeslundii PK947/Streptococcus oralis SO34; test: reversal of coaggregation, visual score; assay type: cell-based; set-up: key to reversal of coaggregation: *: Coaggregations were reversed by both D-galactose and D-tagatose; details: for coaggregation score: pair PK947/SO34, water score 3, scale 0 no visible to 4 maximum coaggregation; for reversal of coaggregation: pair SO34/PK947, coaggregation score 3 without sugar
Experimental: as §1, §2

O=C[C@H](O)[C@@H](O)[C@@H](O)[C@H](O)CO [D-Galactose]
reversibility of the D-tagatose sensitive coaggregations [1]: reversible
dissociation of coaggregate clumps ([2]; 143 mM final concentration): dissociates clumps into individual cells
coaggregation score without sugar [3]: 2*
coaggregation score ([3]; sugar 143 mM): 0
coaggregation score without sugar [4]: 3*
coaggregation score ([4]; sugar 143 mM): 0
coaggregation score without sugar [5]: 3*
coaggregation score ([5]; sugar 143 mM): 0
coaggregation score without sugar [6]: 4*
coaggregation score ([6]; sugar 143 mM): 1
coaggregation score ([7]; sugar 143 mM): 1
coaggregation score without sugar [7]: 4*
coaggregation score ([8]; sugar 143 mM): 1
coaggregation score without sugar [8]: 3*
coaggregation score without sugar [9]: 3*
coaggregation score ([9]; sugar 143 mM): 0
coaggregation score without sugar [10]: 4*
coaggregation score ([10]; sugar 143 mM): 0
coaggregation score ([11]; sugar 143 mM): 0
coaggregation score without sugar [11]: 2*
coaggregation score without sugar [12]: 2*
coaggregation score ([12]; sugar 143 mM): 0
coaggregation score without sugar [13]: 3*
coaggregation score ([13]; sugar 143 mM): 0
coaggregation score without sugar [14]: 3*
coaggregation score ([14]; sugar 143 mM): 1
reversal of coaggregation [15]: 2*
coaggregation score ([15]; sugar 143 mM): 0
reversal of coaggregation [16]: 2*
coaggregation score ([16]; sugar 143 mM): 0
coaggregation score ([17]; sugar 143 mM): 0
reversal of coaggregation [17]: 2*
coaggregation score ([18]; sugar 143 mM): 0
reversal of coaggregation [18]: 3*

O=C(CO)[C@@H](O)[C@@H](O)[C@H](O)CO [D-Tagatose]
plaque reversibility, comparison of Table 2 ([1]; D-tagatose and D-sorbitol at somewhat higher concentrations than D-galactose): virtually equal to that of D-galactose
share of strong coaggregating pairs whose coaggregation was completely reversed ([1]; concentration of less than 750 mM, 28 strong coaggregating pairs tested): 60%
number of strong coaggregating pairs whose coaggregation was completely reversed ([1]; concentration of less than 750 mM, of 28 strong coaggregating pairs (score of 2 or higher) tested): 17
colonizers acted on ([1]; late colonizers were gram-negative anaerobes): acted on both early colonizers and late colonizers
dissociation of coaggregate clumps ([2]; 400 mM final concentration): dissociates the clumps into individual cells
coaggregation score without sugar [3]: 2*
coaggregation score ([3]; sugar 600 mM): 0
coaggregation score without sugar [4]: 3*
coaggregation score ([4]; sugar 750 mM): 1
coaggregation score without sugar [5]: 3*
coaggregation score ([5]; sugar 750 mM): 2
coaggregation score without sugar [6]: 4*
coaggregation score ([6]; sugar 750 mM): 1
coaggregation score ([7]; sugar 750 mM): 1
coaggregation score without sugar [7]: 4*
coaggregation score ([8]; sugar 200 mM): 1
coaggregation score without sugar [8]: 3*
coaggregation score without sugar [9]: 3*
coaggregation score ([9]; sugar 200 mM): 1
coaggregation score without sugar [10]: 4*
coaggregation score ([10]; sugar 400 mM): 0
coaggregation score ([11]; sugar 400 mM): 1
coaggregation score without sugar [11]: 2*
coaggregation score without sugar [12]: 2*
coaggregation score ([12]; sugar 400 mM): 0
coaggregation score without sugar [13]: 3*
coaggregation score ([13]; sugar 200 mM): 0
coaggregation score without sugar [14]: 3*
coaggregation score ([14]; sugar 600 mM): 0
reversal of coaggregation [15]: 2*
coaggregation score ([15]; sugar 200 mM): 0
reversal of coaggregation [16]: 2*
coaggregation score ([16]; sugar 200 mM): 0
coaggregation score ([17]; sugar 200 mM): 0
reversal of coaggregation [17]: 2*
coaggregation score ([18]; sugar 200 mM): 0
reversal of coaggregation [18]: 3*
